Assay [1] has as its target Aβ1-40 (Homo sapiens, UniProt P05067). Nature of the assay: Dissolution / prevention of metal-induced Aβ aggregates (filtration, 6E10 immunodetection). As to conditions: "we found", with reference to Atamna, 2004. The format is biochemical. The procedure: Aβ1-40 (10 ng in 200 μl) aggregation is induced by incubation (30 min, RT) with ZnCl2 (25 μM in TBS, pH 7.4), CuCl2 (5 μM in TBS, pH 6.8), or acidic conditions (pH 5.5, MES buffered saline). Aggregates are transferred to a 0.2μ nylon membrane by filtration using a 96-well ELIFA apparatus (Pierce). The aggregates are then washed (200 μl/well) with TBS alone, TBS containing 2 μM EDTA (control), or TBS with uroproporphyrin or coproporphyrin at varying concentrations (0.1 μM-1 mM). The membrane is fixed, probed with the anti-Aβ monoclonal antibody 6E10 (Senetek), and developed for exposure to ECL film. Quantification of retained, aggregated Aβ is performed by densitometry, calibrated against known amounts of the peptide.
Because metals, such as Zn++ and Cu+, trigger the pathologic aggregation of Aβ, an important causal factor in Alzheimers disease, we tested the ability of endogenous prophyrins to prevent Aβ aggregation using published methodology. […] The effect of porphyrins on Aβ is likely mediated by their ability to chelate metals. […] Endogenous porphyrins can be used directly, or their synthesis can be triggered in tissue by applying their precursors and/or cofactors, for therapeutic purposes including the treatment and prevention of disorders that involve Aβ aggregation and/or metal toxicity. […]

A short description of assay [2]: Absorption spectroscopy of porphyrin intermediates on addition of metal (metal binding), +Mn. Also on record: key to Cpor 370 nm peak, change after metal addition / Cpor 500 nm peak, change after metal addition / Cpor 538 nm peak, change after metal addition / Cpor 560 nm peak, change after metal addition / Cpor 608 nm peak, change after metal addition / Upor 395 nm peak, change after metal addition / Upor 498 nm peak, change after metal addition / Upor 540 nm peak, change after metal addition / Upor 565 nm peak, change after metal addition / Upor 612 nm peak, change after metal addition: Dis; peak disappeared.; Inc; Peak increased.; Dec; peak decreased.; = indicates no difference from the control.; (a)indicates new peak. An excerpt:
(§1) In the determining step, the individual is identified as subject to or predisposed to a polycarboxylated porphyrin-binding metal toxicity. Polycarboxylated porphyrin-binding metal toxicities include metal toxicity from environmental exposure, and disorders characterized by disturbances in metal ion homeostasis, particularly disorders that result in metal ion accumulation. Examples of such disorders include Wilson's disease, in which copper transport is defective (e.g. Nakayama, 2000); aceruloplasminemia, an iron metabolism disorder (e.g. Miyajima, 2003); and diseases involving metal-facilitated protein aggregation such as zinc, copper, or iron facilitated-aggregation of Aβ in Alzheimer's disease (e.g. Atamna, 2004), and aluminum, copper, iron, cobalt, or manganese facilitated-aggregation of α-synuclein in Parkinson's disease (e.g. Uversky, 2001). Conventional spectroscopy assays (e.g. Beer, 2003) can be used to determine whether a given polycarboxylated porphyrin binds the toxic metal of interest (e.g. Example 2, below). In particular embodiments, the metal is selected from the group consisting of Al^+++, Hg^++, […], Cu^+, Mn^+, and Zn^++.
(§2) We studied the interaction between metals and porphyrin intermediates.

Assay [3] is described as follows: Absorption spectroscopy of porphyrin intermediates on addition of metal (metal binding), +Zn. More on the design: key to Cpor 500 nm peak, change after metal addition / Cpor 538 nm peak, change after metal addition / Cpor 560 nm peak, change after metal addition / Cpor 608 nm peak, change after metal addition / Upor 498 nm peak, change after metal addition / Upor 540 nm peak, change after metal addition / Upor 565 nm peak, change after metal addition / Upor 612 nm peak, change after metal addition: Dis; peak disappeared.; Inc; Peak increased.; Dec; peak decreased.; = indicates no difference from the control.; (a)indicates new peak.
Description: as §1, §2

Assay [4] in a line: Absorption spectroscopy of porphyrin intermediates on addition of metal (metal binding), +Cu. More on the design: key to Cpor 370 nm peak, change after metal addition / Cpor 500 nm peak, change after metal addition / Cpor 538 nm peak, change after metal addition / Cpor 560 nm peak, change after metal addition / Cpor 608 nm peak, change after metal addition / Upor 395 nm peak, change after metal addition / Upor 498 nm peak, change after metal addition / Upor 540 nm peak, change after metal addition / Upor 565 nm peak, change after metal addition / Upor 612 nm peak, change after metal addition: Dis; peak disappeared.; Inc; Peak increased.; Dec; peak decreased.; = indicates no difference from the control.; (a)indicates new peak.
Description: as §1, §2

Several values for one entry are separate records, joined by “and”; a condition that tells them apart may be missing. Equal entries are not always repeated.

Chain of Aβ1-40 (P05067 672-711 limits assumed): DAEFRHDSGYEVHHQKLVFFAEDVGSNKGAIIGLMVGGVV

Consider `C=CC1=C(C)c2cc3[n-]c(cc4[n-]c(cc5nc(cc1n2)C(C)=C5C=C)c(C)c4CCC(=O)O)c(CCC(=O)O)c3C.[Fe+2]` [heme], for which the “Displacement of metals from aggregated Aβ and disaggregation” value in assay [1] is “displace metals from the aggregated Aβ and disaggregate the complex”.

In the case of Coproporphyrin III [Cpor], in assay [2], the “Cpor 370 nm peak, change after metal addition” value was “=”; the “Cpor 500 nm peak, change after metal addition” value (“Cpor 500 nm peak, change” below) is reported as “=”; the “Cpor 538 nm peak, change after metal addition” value (from here on “Cpor 538 nm peak, change”) is recorded as “=”; the “Cpor 560 nm peak, change after metal addition” value (shortened to “Cpor 560 nm peak, change”) is on record as “=”. Besides, in assay [2], the “Cpor 608 nm peak, change after metal addition” value (“Cpor 608 nm peak, change” below) is “=”. In assay [3], the “Cpor 500 nm peak, change” value is reported as “Dis”; the “Cpor 538 nm peak, change” value is recorded as “Inc”; the “Cpor 560 nm peak, change” value was “Inc”; the “Cpor 608 nm peak, change” value is recorded as “Dis”. Moreover, the “New peak after metal addition (marked a)” value in assay [3] was found to be 575a nm. Moreover, the “Cpor 370 nm peak after metal addition (peak position)” value in assay [3] (control peak 370 nm) was 400 nm. Also, in assay [4], the “Cpor 370 nm peak, change after metal addition” value was “=”; the “Cpor 500 nm peak, change” value is given as “=”; the “Cpor 538 nm peak, change” value is on record as “Dec”; the “Cpor 560 nm peak, change” value was “Dec”. In addition, in assay [4], the “Cpor 608 nm peak, change” value is on record as “Dis” and the “New peak after metal addition (marked a)” value came out at 525a nm.

`O=C(O)CCC1=C(CC(=O)O)c2cc3[nH]c(cc4nc(cc5[nH]c(cc1n2)c(CC(=O)O)c5CCC(=O)O)C(CCC(=O)O)=C4CC(=O)O)c(CC(=O)O)c3CCC(=O)O` [Upor, Uroporphyrin III]: in assay [2], the “New peak after metal addition (marked a)” value was 460a nm and 545a nm and 575a nm; the “Upor 395 nm peak, change after metal addition” value is reported as “Inc”; the “Upor 498 nm peak, change after metal addition” value (from here on “Upor 498 nm peak, change”) was “Dis”; the “Upor 540 nm peak, change after metal addition” value (shortened to “Upor 540 nm peak, change”) is “Dis”. In assay [2], the “Upor 565 nm peak, change after metal addition” value (“Upor 565 nm peak, change” below) is listed as “Dis” and the “Upor 612 nm peak, change after metal addition” value (from here on “Upor 612 nm peak, change”) was “Dis”. Also, in assay [3], the “New peak after metal addition (marked a)” value was 575a nm; the “Upor 498 nm peak, change” value was “Dis”; the “Upor 540 nm peak, change” value is “Inc”; the “Upor 565 nm peak, change” value is “Dis”. For the same compound, the “Upor 612 nm peak, change” value in assay [3] is given as “Dis”. Further, the “Upor 395 nm peak after metal addition (peak position)” value in assay [3] (control peak 395 nm) was found to be 405 nm. In assay [4], the “New peak after metal addition (marked a)” value was determined as 525a nm; the “Upor 395 nm peak, change after metal addition” value was “Inc”; the “Upor 498 nm peak, change” value is listed as “Dis”; the “Upor 540 nm peak, change” value is “Dis”. Further, in assay [4], the “Upor 565 nm peak, change” value is “Inc” and the “Upor 612 nm peak, change” value was “Dis”.

(Values after US7906499B2, “Polycarboxylated porphyrins and use thereof in treatment of metal toxicities” (priority 2005, dated 2011).)
